Experimental data reported in patent US9321722B2, “Bis-indolic derivatives, their uses in particular as antibacterials” (UNIVERSITE JOSEPH FOURIER, priority 2011, dated 2016).
Values after ≈ are worked out from the molar mass of the structure shown.

Columns and labels:
Assay type in all cases: cell-based
[1] = test system: Staphylococcus auricularis (CHUG-Saur1); assay: MIC, Staphylococcus panel (Table I-2); details: 18 h, 4% DMSO
Description: (§1) We used the previously described protocol, with subtle modifications. The microdilution method recommended by the Clinical and Laboratory Standard Institute [M07-A9, Vol. 32, N^o 2] was used. The activity of bis-indolic compounds was tested against 35 bacterial strains belonging to 12 different Staphylococcus species.
(§2) Bacterial inocula were prepared in Mueller Hinton broth (MH2, BioMerieux, Marcy L'Etoile, France). They were dispensed in 96 well microtiter plates (5×10^5 CFU/ml of final inoculum, 192 μL per well). Indolic compounds diluted in pure DMSO (8 μL per well, concentrated 25 times) were added to the wells as to obtain two-fold serial concentrations (0.5-32 mg/L of final concentrations). The final concentration of DMSO was 4% in each well.
(§3) To avoid cross-contaminations in microtiter plates, one row was left blank between each strain tested. Microplates were incubated for 18 h at 37° C. in ambient air or at 37° C. in 5% CO2 enriched atmosphere for fastidious species. Then MICs were read visually and, in case of visual reading difficulties, confirmed using a spectrophotometer at a wavelength of 630 nm (BioTek® EL808 Absorbance Microplate Reader). MICs corresponded to the minimum bis-indolic compound concentration that allowed complete visual growth inhibition of bacteria. Drug-free cultures served as growth controls.
(§4) Coagulase-negative Staphylococcus strains included three reference strains purchased from CRBIP: a methicillin-susceptible S. epidermidis strain (ATCC 12228), a methicillin-resistant S. epidermidis strain (ATCC 49461), and a methicillin-susceptible S. sciuri strain (ATCC 29061). We also used clinical strains belonging to the following coagulase-negative Staphylococcus species: S. auricularis (two strains), S. warneri (five strains), S. capitis (five strains), S. haemolyticus (four strains), S. hominis (seven strains), S. cohnii (two strains), and S. saprophyticus, S. caprae and S. simulans (one strain each). Identification of the clinical strains was obtained using VITEK® 2 System (Biomérieux).

[2] = test system: Staphylococcus auricularis (CHUG-Saur3); assay: MIC, Staphylococcus panel (Table I-2); details: 18 h, 4% DMSO
Description: as §1, §2, §3, §4

[3] = test system: Staphylococcus capitis (CHUG-Scap1); assay: MIC, Staphylococcus panel (Table I-2); details: 18 h, 4% DMSO
Description: as §1, §2, §3, §4

[4] = test system: Staphylococcus capitis (CHUG-Scap4); assay: MIC, Staphylococcus panel (Table I-2); details: 18 h, 4% DMSO
Description: as §1, §2, §3, §4

[5] = test system: Staphylococcus capitis (CHUG-Scap5); assay: MIC, Staphylococcus panel (Table I-2); details: 18 h, 4% DMSO
Description: as §1, §2, §3, §4

[6] = test system: Staphylococcus capitis (CHUG-Scap6); assay: MIC, Staphylococcus panel (Table I-2); details: 18 h, 4% DMSO
Description: as §1, §2, §3, §4

[7] = test system: Staphylococcus capitis (CHUG-Scap7); assay: MIC, Staphylococcus panel (Table I-2); details: 18 h, 4% DMSO
Description: as §1, §2, §3, §4

[8] = test system: Staphylococcus caprae (CHUG-Scapra1); assay: MIC, Staphylococcus panel (Table I-2); details: 18 h, 4% DMSO
Description: as §1, §2, §3, §4

[9] = test system: Staphylococcus cohnii (CHUG-Scoh1) (MRSA); assay: MIC, Staphylococcus panel (Table I-2); details: 18 h, 4% DMSO
Description: as §1, §2, §3, §4

[10] = test system: Staphylococcus cohnii (CHUG-Scoh2); assay: MIC, Staphylococcus panel (Table I-2); details: 18 h, 4% DMSO
Description: as §1, §2, §3, §4

[11] = test system: Staphylococcus epidermidis ATCC 12228; assay: MIC, Staphylococcus panel (Table I-2); details: ATCC12228, 18 h, 4% DMSO
Description: as §1, §2, §3, §4

[12] = test system: Staphylococcus epidermidis ATCC 49461; assay: MIC, Staphylococcus panel (Table I-2); details: ATCC49461, 18 h, 4% DMSO
Description: as §1, §2, §3, §4

[13] = test system: Staphylococcus haemolyticus (CHUG-Scap4); assay: MIC, Staphylococcus panel (Table I-2); details: 18 h, 4% DMSO
Description: as §1, §2, §3, §4

[14] = test system: Staphylococcus haemolyticus (CHUG-Scap5); assay: MIC, Staphylococcus panel (Table I-2); details: 18 h, 4% DMSO
Description: as §1, §2, §3, §4

[15] = test system: Staphylococcus haemolyticus (CHUG-Scap6); assay: MIC, Staphylococcus panel (Table I-2); details: 18 h, 4% DMSO
Description: as §1, §2, §3, §4

[16] = test system: Staphylococcus haemolyticus (CHUG-Shae1); assay: MIC, Staphylococcus panel (Table I-2); details: 18 h, 4% DMSO
Description: as §1, §2, §3, §4

[17] = test system: Staphylococcus hominis (CHUG-Shom1); assay: MIC, Staphylococcus panel (Table I-2); details: 18 h, 4% DMSO
Description: as §1, §2, §3, §4

[18] = test system: Staphylococcus hominis (CHUG-Shom3); assay: MIC, Staphylococcus panel (Table I-2); details: 18 h, 4% DMSO
Description: as §1, §2, §3, §4

[19] = test system: Staphylococcus hominis (CHUG-Shom4); assay: MIC, Staphylococcus panel (Table I-2); details: 18 h, 4% DMSO
Description: as §1, §2, §3, §4

[20] = test system: Staphylococcus hominis (CHUG-Shom5); assay: MIC, Staphylococcus panel (Table I-2); details: 18 h, 4% DMSO
Description: as §1, §2, §3, §4

[21] = test system: Staphylococcus hominis (CHUG-Shom6); assay: MIC, Staphylococcus panel (Table I-2); details: 18 h, 4% DMSO
Description: as §1, §2, §3, §4

[22] = test system: Staphylococcus hominis (CHUG-Shom7); assay: MIC, Staphylococcus panel (Table I-2); details: 18 h, 4% DMSO
Description: as §1, §2, §3, §4

[23] = test system: Staphylococcus hominis (CHUG-Shom8); assay: MIC, Staphylococcus panel (Table I-2); details: 18 h, 4% DMSO
Description: as §1, §2, §3, §4

[24] = test system: Staphylococcus saprophyticus (CHUG-Ssap2); assay: MIC, Staphylococcus panel (Table I-2); details: 18 h, 4% DMSO
Description: as §1, §2, §3, §4

[25] = test system: Staphylococcus sciuri ATCC 29061; assay: MIC, Staphylococcus panel (Table I-2); details: Mammaliicoccus sciuri, ATCC29061, 18 h, 4% DMSO
Description: as §1, §2, §3, §4

[26] = test system: Staphylococcus simulans (CHUG-Ssim1); assay: MIC, Staphylococcus panel (Table I-2); details: 18 h, 4% DMSO
Description: as §1, §2, §3, §4

[27] = test system: Staphylococcus warneri (CHUG-Swar1); assay: MIC, Staphylococcus panel (Table I-2); details: 18 h, 4% DMSO
Description: as §1, §2, §3, §4

[28] = test system: Staphylococcus warneri (CHUG-Swar4); assay: MIC, Staphylococcus panel (Table I-2); details: 18 h, 4% DMSO
Description: as §1, §2, §3, §4

[29] = test system: Staphylococcus warneri (CHUG-Swar5); assay: MIC, Staphylococcus panel (Table I-2); details: 18 h, 4% DMSO
Description: as §1, §2, §3, §4

[30] = test system: Staphylococcus warneri (CHUG-Swar6); assay: MIC, Staphylococcus panel (Table I-2); details: 18 h, 4% DMSO
Description: as §1, §2, §3, §4

[31] = test system: Staphylococcus warneri (CHUG-Swar7); assay: MIC, Staphylococcus panel (Table I-2); details: 18 h, 4% DMSO
Description: as §1, §2, §3, §4

[32] = test system: HCT116 (human colon tumor); assay: In vitro cytotoxicity; details: HCT-116, HCT116, in DMSO, duplicate

| SMILES | MIC [1] | MIC [2] | MIC [3] | MIC [4] | MIC [5] | MIC [6] | MIC [7] | MIC [8] | MIC [9] | MIC [10] | MIC [11] | MIC [12] | MIC [13] | MIC [14] | MIC [15] | MIC [16] | MIC [17] | MIC [18] | MIC [19] | MIC [20] | further results |
| --- | --- | --- | --- | --- | --- | --- | --- | --- | --- | --- | --- | --- | --- | --- | --- | --- | --- | --- | --- | --- | --- |
| CC(C)(C)OC(=O)NCC(NC(=O)C(=O)c1c[nH]c2ccc(Br)cc12)c1c[nH]c2ccc(Br)cc12 (stereo not shown) [Compound 4, tert-Butyl(2-(5-bromo-1H-indol-3-yl)-2-(2-(5-bromo-1H-indol-3-yl)-2-oxoacetamido)ethyl) carbamate] | 1 µg/mL (≈ 1.65 µM) | 1 µg/mL (≈ 1.65 µM) | 1 µg/mL (≈ 1.65 µM) | 1 µg/mL (≈ 1.65 µM) | 1 µg/mL (≈ 1.65 µM) | 1 µg/mL (≈ 1.65 µM) | 1 µg/mL (≈ 1.65 µM) | 1 µg/mL (≈ 1.65 µM) | 1 µg/mL (≈ 1.65 µM) | 2 µg/mL (≈ 3.31 µM) | 1 µg/mL (≈ 1.65 µM) | 1 µg/mL (≈ 1.65 µM) | 2 µg/mL (≈ 3.31 µM) | 1 µg/mL (≈ 1.65 µM) | 2 µg/mL (≈ 3.31 µM) | 1 µg/mL (≈ 1.65 µM) | 2 µg/mL (≈ 3.31 µM) | 1 µg/mL (≈ 1.65 µM) | 1 µg/mL (≈ 1.65 µM) | 1 µg/mL (≈ 1.65 µM) | MIC [21]: 1 µg/mL (≈ 1.65 µM); MIC [22]: 1 µg/mL (≈ 1.65 µM); MIC [23]: 1 µg/mL (≈ 1.65 µM); MIC [24]: 1 µg/mL (≈ 1.65 µM); MIC [25]: 2 µg/mL (≈ 3.31 µM); MIC [26]: 1 µg/mL (≈ 1.65 µM); MIC [27]: 1 µg/mL (≈ 1.65 µM); MIC [28]: 1 µg/mL (≈ 1.65 µM); MIC [29]: 1 µg/mL (≈ 1.65 µM); MIC [30]: 1 µg/mL (≈ 1.65 µM); MIC [31]: 1 µg/mL (≈ 1.65 µM); IC50 [32]: 4.55 µM |
| CC(NC(=O)C(=O)c1c[nH]c2ccc(Br)cc12)c1c[nH]c2ccc(Br)cc12 (stereo not shown) [Compound 5, 2-(5-Bromo-1H-indol-3-yl)-N-(1-(5-bromo-1H-indol-3-yl)ethyl)-2-oxoacetamide] | 1 µg/mL (≈ 2.04 µM) | 1 µg/mL (≈ 2.04 µM) | 2 µg/mL (≈ 4.09 µM) | 1 µg/mL (≈ 2.04 µM) | 2 µg/mL (≈ 4.09 µM) | 1 µg/mL (≈ 2.04 µM) | 2 µg/mL (≈ 4.09 µM) | 2 µg/mL (≈ 4.09 µM) | 2 µg/mL (≈ 4.09 µM) | 2 µg/mL (≈ 4.09 µM) | 2 µg/mL (≈ 4.09 µM) | 2 µg/mL (≈ 4.09 µM) | 4 µg/mL (≈ 8.18 µM) | 4 µg/mL (≈ 8.18 µM) | 4 µg/mL (≈ 8.18 µM) | 4 µg/mL (≈ 8.18 µM) | 4 µg/mL (≈ 8.18 µM) | 2 µg/mL (≈ 4.09 µM) | 2 µg/mL (≈ 4.09 µM) | 1 µg/mL (≈ 2.04 µM) | MIC [21]: 2 µg/mL (≈ 4.09 µM); MIC [22]: 2 µg/mL (≈ 4.09 µM); MIC [23]: 2 µg/mL (≈ 4.09 µM); MIC [24]: 2 µg/mL (≈ 4.09 µM); MIC [25]: 4 µg/mL (≈ 8.18 µM); MIC [26]: 2 µg/mL (≈ 4.09 µM); MIC [27]: 2 µg/mL (≈ 4.09 µM); MIC [28]: 2 µg/mL (≈ 4.09 µM); MIC [29]: 1 µg/mL (≈ 2.04 µM); MIC [30]: 2 µg/mL (≈ 4.09 µM); MIC [31]: 2 µg/mL (≈ 4.09 µM); IC50 [32]: 10.1 µM |
